The values that follow are results of earlier work, collected in patent US20240189256A1, “COMPOSITIONS FOR PRE-SURGICAL NUTRITIONAL SUPPLEMENTS” (TM Nutrition LLC, priority 2022, published 2024).

Structures are written as SMILES.

For data set [1] the following is noted: unless sepsis is present.
The conditions of data set [2]: given orally.

By half-life is commonly meant the time needed for the level to fall by half in the phase considered. On to `N=C(N)NCCC[C@H](N)C(=O)O` [arginine], for which the “supplementation safe and well tolerated up to” value in data set [1] is recorded as “up to 10 g/day”. Moreover, the half-life in data set [2] was 1.5 to 2 h.
